ChEMBL document CHEMBL1201862, “PubChem BioAssay data set” (2004)
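Cells were grown in 96-well plates and exposed to each compound for 48 hours at five concentrations; endpoints were interpolated linearly between bracketing concentrations, or set to the highest concentration if not reached. GI50 is the concentration that inhibits growth by half.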 The source made the active and inactive calls. No stated cut-off is given here; in the data, active = GI50 up to about 1.1 µM and inactive = higher.

Tests used:
Experiment in all cases: DTP human tumour cell line panel, 48 h
NCI/ADR-RES = test system: NCI/ADR-RES
NCI-H522 = test system: NCI-H522
T47D = test system: T47D
UO-31 = test system: UO-31
NCI-H226 = test system: NCI-H226
NCI-H460 = test system: NCI-H460
HOP-92 = test system: HOP-92
ACHN = test system: ACHN
LOX IMVI = test system: LOX IMVI
SNB-75 = test system: SNB-75
SF-539 = test system: SF-539
BT-549 = test system: BT-549
COLO 205 = test system: COLO 205
HCC 2998 = test system: HCC 2998
EKVX = test system: EKVX
OVCAR-8 = test system: OVCAR-8
NCI-H23 = test system: NCI-H23
CAKI-1 = test system: CAKI-1
HCT-116 = test system: HCT-116
MDA-MB-435 = test system: MDA-MB-435

Measured: GI50

O=c1[nH]nc(Nc2ccccc2)c2nnn(Cc3ccccc3)c12
inactive: NCI/ADR-RES 50.8 µM | NCI-H522 > 100 µM | T47D > 100 µM | UO-31 > 100 µM | NCI-H226 20.3 µM | NCI-H460 85.3 µM | HOP-92 57 µM | ACHN > 100 µM | LOX IMVI > 100 µM | SNB-75 18.7 µM | SF-539 54.2 µM | BT-549 > 100 µM | COLO 205 > 100 µM | HCC 2998 > 100 µM | EKVX > 100 µM | OVCAR-8 19.2 µM | NCI-H23 > 100 µM | CAKI-1 > 100 µM | HCT-116 83.9 µM | MDA-MB-435 > 100 µM

CSc1nc(SC)c2c(C)cn(Cc3ccccc3)c2n1
inactive: NCI/ADR-RES > 100 µM | NCI-H522 98.4 µM | T47D 33.9 µM | UO-31 56.8 µM | NCI-H226 > 100 µM | NCI-H460 80.2 µM | HOP-92 20.6 µM | ACHN > 100 µM | LOX IMVI 60.4 µM | SNB-75 79.6 µM | SF-539 93.1 µM | BT-549 > 100 µM | COLO 205 > 100 µM | HCC 2998 44.1 µM | EKVX > 100 µM | OVCAR-8 > 100 µM | NCI-H23 > 100 µM | CAKI-1 > 100 µM | HCT-116 69.2 µM | MDA-MB-435 33.2 µM

O=C(CN1CCN(c2ccccn2)CC1)N1CCCn2c1nc1ccccc1c2=O
inactive: NCI/ADR-RES > 100 µM | NCI-H522 > 100 µM | T47D > 100 µM | UO-31 > 100 µM | NCI-H226 > 100 µM | NCI-H460 > 100 µM | HOP-92 > 100 µM | ACHN > 100 µM | LOX IMVI > 100 µM | SNB-75 > 100 µM | SF-539 > 100 µM | BT-549 > 100 µM | COLO 205 > 100 µM | HCC 2998 > 100 µM | EKVX > 100 µM | OVCAR-8 > 100 µM | NCI-H23 > 100 µM | CAKI-1 > 100 µM | HCT-116 > 100 µM | MDA-MB-435 > 100 µM
